Test results reported in patent publication US20260077071A1, “Targeted Delivery of Theranostic Agents” (Peter MacCallum Cancer Institute, priority 2022, published 2026).
Where two headings read alike, the source gives them in different places. One block for each compound: values may come before it. Square brackets hold non-standard residues; d marks the D form. Peptide text beside a SMILES is read from it. * marks the point of attachment. DOTA = O=C(O)CN1CCN(CC(=O)O)CCN(CC(=O)*)CCN(CC(=O)O)CC1; Phe(3,4,5-F3) = N[C@@H](Cc1cc(F)c(F)c(F)c1)C(=O)O; Phe(F5) = N[C@@H](Cc1c(F)c(F)c(F)c(F)c1F)C(=O)O; Phe(4-Ac) = CC(=O)c1ccc(C[C@H](N)C(=O)O)cc1; NMe1Nal = CN[C@@H](Cc1cccc2ccccc12)C(=O)O; Phe(4-NH2) = Nc1ccc(C[C@H](N)C(=O)O)cc1; 1Nal = N[C@@H](Cc1cccc2ccccc12)C(=O)O; NMeF = CN[C@@H](Cc1ccccc1)C(=O)O; NMeNle = CCCC[C@H](NC)C(=O)O; Sar = CNCC(=O)O

Assays:
[1] = target: T1, human full-length CCK-2 receptor (Homo sapiens, UniProt P32239); experiment: Competitive ligand binding against [^177Lu]Lu-DOTA-CP04 in A431-CCK-2R cells; conditions: for IC50: read-out: IC50; for loss of binding affinity / activity: D-Ala analogue versus baseline comparative example-1
T1 construct: stably transfected to over-express the human full-length CCK-2 receptor (A431-CCK-2R); expressed in transfected cells
T1 sequence (P32239 1-447): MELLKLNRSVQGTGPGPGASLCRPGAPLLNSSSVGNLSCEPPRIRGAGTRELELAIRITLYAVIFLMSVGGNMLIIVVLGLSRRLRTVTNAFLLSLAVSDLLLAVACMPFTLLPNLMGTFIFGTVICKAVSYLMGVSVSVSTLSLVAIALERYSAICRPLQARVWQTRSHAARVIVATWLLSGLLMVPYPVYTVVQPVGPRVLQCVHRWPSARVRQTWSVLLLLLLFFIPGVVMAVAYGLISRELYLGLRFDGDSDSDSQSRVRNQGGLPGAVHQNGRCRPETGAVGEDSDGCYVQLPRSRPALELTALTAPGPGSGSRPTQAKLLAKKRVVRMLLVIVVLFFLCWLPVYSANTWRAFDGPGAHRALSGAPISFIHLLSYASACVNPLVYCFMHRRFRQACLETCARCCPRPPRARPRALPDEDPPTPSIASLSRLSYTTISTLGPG
Experimental: CCK-2 receptor binding experiments were conducted using A431 (human epidermoid carcinoma) cells stably transfected to over-express the human full-length CCK-2 receptor (A431-CCK-2R). As a negative control, A431 cells stably transfected with an empty vector were analysed simultaneously (A431-EV). A431 cells were maintained in DMEM (Gibco, Australia) media supplemented with 10% foetal calf serum and 250 μg/mL G418 as described previously (Aloj L, et al., J Nucl Med., 2004, Mar; 45(3), 485-94). The affinity of peptides for the CCK-2R was evaluated using competitive binding assays against [^177Lu]Lu-DOTA-CP04 in A431-CCK-2R cells. Briefly, 48 h before the experiment cells were plated at a density of 650,000 cells per well in 6 well plates. On the day of the experiment the peptides were diluted in DMEM supplemented with 1% foetal calf serum to at least 7 different concentrations (0-400 nM) and approximately 50,000 cpm of [^177Lu]Lu-DOTA-CP04 was added to each dilution. Cells were washed twice in ice-cold binding buffer (DMEM supplemented with 1% foetal calf serum) and resuspended in 1.5 mL of the pre-prepared compound mix before being incubated at 37° C. for 1 h. Post-incubation the media was removed and kept for analysis (unbound fraction) and the cells were washed twice in ice-cold binding buffer, which was pooled with the unbound fraction. Finally, 1 M NaOH was added to the cells and allowed to incubate for 5 min before lysates were collected (bound fraction). A small volume of lysate was kept aside to determine protein concentration using the Pierce® BCA protein assay kit (Thermo Fisher, Australia). All samples were analysed using the Perkin Elmer 2480 Wizard2™ gamma counter (PerkinElmer, Massachusetts, USA) and were normalised according to protein concentration. Half-maximal inhibitory concentrations (IC50) were determined using nonlinear regression calculated using GraphPad Prism Software (GraphPad Software, California, USA).
The compounds were evaluated for their ability to disrupt the binding between CCK-2 receptor (CCK-2R) and [^177Lu]Lu-DOTA-CP04 using the methodology described above and compared to comparative example-2 (FIG. 2; Table 5).

in vitro = in vitro ADME, mouse; conditions: mouse, tissue homogenate, pH 7.3
Experimental: Drug detoxification, drug metabolism and metabolic stability are important determinants of the efficacy of theranostic candidates in clinical settings. To assess metabolic stability, radiolabelled Compounds [^68Ga]Ga-1-4 and comparative example-2 ([^68Ga]Ga-Cmp ex-2) were challenged by incubation in either human serum, mouse liver or kidney homogenates and HEPES buffer as a negative control. Duplicate samples (750-900 pmol/mL) were incubated at 37° C. with pooled human serum, 15% mouse kidney homogenate, 30% mouse liver homogenate or 20 mM HEPES, pH 7.3 (control). Human blood was collected and serum prepared using SSTII advance vacutainer tubes according to the manufacturer's instructions (Becton Dickinson, New Jersey, USA). Mouse kidney and liver homogenates were prepared by washing the tissues in ice-cold HEPES buffer, pH 7.3 and placing them in pre-chilled tubes containing HEPES buffer and 2.38 mm metal beads (Mo-Bio Laboratories, Hilden, Germany). Tissues were homogenised using the PowerLyzer24 homogeniser (Qiagen, Hilden, Germany) according to the manufacturer's instructions. Ga-68 radiolabelled peptides were incubated with the various lysates at 37° C. and samples were collected at 15, 30, 60 and 90 min. Reactions were terminated by addition of an equal volume of acetonitrile and centrifugation for 2 min at 15,000 rpm. Supernatants were diluted in water before being analysed by HPLC using a Kinetex C18 XB column (5 μm 4.6×150 mm), eluted at 1.5 mL/min of gradient 20-60% MeCN in water containing 0.1% formic acid over 7 min.

[2] = ^natGa chelated DOTA-compounds based on Peptide C (Table 5)
[3] = modified peptides based on Peptide C (Table 4)

SMILES: CCCC[C@@H](C(=O)N[C@@H](CC(=O)O)C(=O)N(C)[C@@H](Cc1ccccc1)C(N)=O)N(C)C(=O)[C@H](Cc1c[nH]c2ccccc12)NC(=O)CN(C)C(=O)[C@H](Cc1ccc(O)cc1)NC(=O)[C@H](C)NC(=O)[C@@H](CCC(=O)O)NC(=O)[C@@H](CCC(=O)O)NC(=O)[C@@H](CCC(=O)O)NC(=O)[C@@H](C)NC(=O)[C@@H](CCC(=O)O)NC(=O)[C@@H](CCC(=O)O)NC(=O)CN1CCN(CC(=O)O)CCN(CC(=O)O)CCN(CC(=O)O)CC1 [^natGa-2, metal not drawn] ({DOTA}-[dE][dE][dA][dE][dE][dE]AY[Sar]W[NMeNle]D[NMeF]-NH2)
IC50 [1, 2]: 0.185 nM

SMILES: CCCC[C@@H](C(=O)N[C@@H](CC(=O)O)C(=O)N[C@@H](Cc1c(F)c(F)c(F)c(F)c1F)C(N)=O)N(C)C(=O)[C@H](Cc1c[nH]c2ccccc12)NC(=O)CN(C)C(=O)[C@H](Cc1ccc(O)cc1)NC(=O)[C@H](C)NC(=O)[C@@H](CCC(=O)O)NC(=O)[C@@H](CCC(=O)O)NC(=O)[C@@H](CCC(=O)O)NC(=O)[C@@H](C)NC(=O)[C@@H](CCC(=O)O)NC(=O)[C@H](N)CCC(=O)O [T] (H-[dE][dE][dA][dE][dE][dE]AY[Sar]W[NMeNle]D[Phe(F5)]-NH2; N-terminus assumed)
IC50 [1, 3]: 0.607 ± 0.052 nM

SMILES: CCCC[C@@H](C(=O)N[C@@H](CC(=O)O)C(=O)N[C@@H](Cc1cc(F)c(F)c(F)c1)C(N)=O)N(C)C(=O)[C@H](Cc1c[nH]c2ccccc12)NC(=O)CN(C)C(=O)[C@H](Cc1ccc(O)cc1)NC(=O)[C@H](C)NC(=O)[C@@H](CCC(=O)O)NC(=O)[C@@H](CCC(=O)O)NC(=O)[C@@H](CCC(=O)O)NC(=O)[C@@H](C)NC(=O)[C@@H](CCC(=O)O)NC(=O)[C@H](N)CCC(=O)O [N] (H-[dE][dE][dA][dE][dE][dE]AY[Sar]W[NMeNle]D[Phe(3,4,5-F3)]-NH2; N-terminus assumed)
IC50 [1, 3]: 0.444 ± 0.032 nM

SMILES: CCCC[C@@H](C(=O)N[C@@H](CC(=O)O)C(=O)N(C)[C@@H](Cc1cccc2ccccc12)C(N)=O)N(C)C(=O)[C@H](Cc1c[nH]c2ccccc12)NC(=O)CN(C)C(=O)[C@H](Cc1ccc(O)cc1)NC(=O)[C@H](C)NC(=O)[C@@H](CCC(=O)O)NC(=O)[C@@H](CCC(=O)O)NC(=O)[C@@H](CCC(=O)O)NC(=O)[C@@H](C)NC(=O)[C@@H](CCC(=O)O)NC(=O)[C@@H](CCC(=O)O)NC(=O)CN1CCN(CC(=O)O)CCN(CC(=O)O)CCN(CC(=O)O)CC1 [Compound 4] ({DOTA}-[dE][dE][dA][dE][dE][dE]AY[Sar]W[NMeNle]D[NMe1Nal]-NH2)
remaining at 1.5 h (in vitro): 100%

SMILES: CCCC[C@@H](C(=O)N[C@@H](CC(=O)O)C(=O)N(C)[C@@H](Cc1cccc2ccccc12)C(N)=O)N(C)C(=O)[C@H](Cc1c[nH]c2ccccc12)NC(=O)CN(C)C(=O)[C@H](Cc1ccc(O)cc1)NC(=O)[C@H](C)NC(=O)[C@@H](CCC(=O)O)NC(=O)[C@@H](CCC(=O)O)NC(=O)[C@@H](CCC(=O)O)NC(=O)[C@@H](C)NC(=O)[C@@H](CCC(=O)O)NC(=O)[C@@H](CCC(=O)O)NC(=O)CN1CCN(CC(=O)O)CCN(CC(=O)O)CCN(CC(=O)O)CC1 [^natGa-4, metal not drawn] ({DOTA}-[dE][dE][dA][dE][dE][dE]AY[Sar]W[NMeNle]D[NMe1Nal]-NH2)
IC50 [1, 2]: 0.096 nM

SMILES: CCCC[C@@H](C(=O)N[C@@H](CC(=O)O)C(=O)N[C@@H](Cc1c(F)c(F)c(F)c(F)c1F)C(N)=O)N(C)C(=O)[C@H](Cc1c[nH]c2ccccc12)NC(=O)CN(C)C(=O)[C@H](Cc1ccc(O)cc1)NC(=O)[C@H](C)NC(=O)[C@@H](CCC(=O)O)NC(=O)[C@@H](CCC(=O)O)NC(=O)[C@@H](CCC(=O)O)NC(=O)[C@@H](CCC(=O)O)NC(=O)[C@@H](CCC(=O)O)NC(=O)[C@H](N)CCC(=O)O [J] (H-[dE][dE][dE][dE][dE][dE]AY[Sar]W[NMeNle]D[Phe(F5)]-NH2; N-terminus assumed)
IC50 ([1]; substituted-phenylalanine peptides based on Cmp ex-1 (Table 3)): 1.92 nM

Further lines, results first:

IC50 [1, 3]: 0.741 ± 0.064 nM
SMILES: CCCC[C@@H](C(=O)N[C@@H](CC(=O)O)C(=O)N[C@@H](Cc1ccc(N)cc1)C(N)=O)N(C)C(=O)[C@H](Cc1c[nH]c2ccccc12)NC(=O)CN(C)C(=O)[C@H](Cc1ccc(O)cc1)NC(=O)[C@H](C)NC(=O)[C@@H](CCC(=O)O)NC(=O)[C@@H](CCC(=O)O)NC(=O)[C@@H](CCC(=O)O)NC(=O)[C@@H](C)NC(=O)[C@@H](CCC(=O)O)NC(=O)[C@H](N)CCC(=O)O [M] (H-[dE][dE][dA][dE][dE][dE]AY[Sar]W[NMeNle]D[Phe(4-NH2)]-NH2; N-terminus assumed)

IC50 [1, 3]: 0.948 ± 0.052 nM
SMILES: CCCC[C@@H](C(=O)N[C@@H](CC(=O)O)C(=O)N[C@@H](Cc1ccc(C(C)=O)cc1)C(N)=O)N(C)C(=O)[C@H](Cc1c[nH]c2ccccc12)NC(=O)CN(C)C(=O)[C@H](Cc1ccc(O)cc1)NC(=O)[C@H](C)NC(=O)[C@@H](CCC(=O)O)NC(=O)[C@@H](CCC(=O)O)NC(=O)[C@@H](CCC(=O)O)NC(=O)[C@@H](C)NC(=O)[C@@H](CCC(=O)O)NC(=O)[C@H](N)CCC(=O)O [V] (H-[dE][dE][dA][dE][dE][dE]AY[Sar]W[NMeNle]D[Phe(4-Ac)]-NH2; N-terminus assumed)

loss of binding affinity / activity [1]: equivalent loss of activity
SMILES: CCCC[C@@H](C(=O)N[C@@H](CC(=O)O)C(=O)N[C@@H](Cc1cccc2ccccc12)C(N)=O)N(C)C(=O)[C@H](Cc1c[nH]c2ccccc12)NC(=O)CN(C)C(=O)[C@H](Cc1ccc(O)cc1)NC(=O)[C@H](C)NC(=O)[C@@H](CCC(=O)O)NC(=O)[C@@H](C)NC(=O)[C@@H](CCC(=O)O)NC(=O)[C@@H](CCC(=O)O)NC(=O)[C@@H](CCC(=O)O)NC(=O)[C@H](N)CCC(=O)O [E] (H-[dE][dE][dE][dE][dA][dE]AY[Sar]W[NMeNle]D[1Nal]-NH2)

loss of binding affinity / activity [1]: approx. 5 fold | IC50 ([1]; D-Ala substituted peptides (Table 2), against [^177Lu]Lu-DOTA-CP04 in A431-CCK-2R cells): 1.62 nM
SMILES: CCCC[C@@H](C(=O)N[C@@H](CC(=O)O)C(=O)N[C@@H](Cc1cccc2ccccc12)C(N)=O)N(C)C(=O)[C@H](Cc1c[nH]c2ccccc12)NC(=O)CN(C)C(=O)[C@H](Cc1ccc(O)cc1)NC(=O)[C@H](C)NC(=O)[C@@H](CCC(=O)O)NC(=O)[C@@H](CCC(=O)O)NC(=O)[C@@H](C)NC(=O)[C@@H](CCC(=O)O)NC(=O)[C@@H](CCC(=O)O)NC(=O)[C@H](N)CCC(=O)O [D] (H-[dE][dE][dE][dA][dE][dE]AY[Sar]W[NMeNle]D[1Nal]-NH2)
